Assay results published in BigSolDB 2.1.

NC(=O)CC[C@H](N)C(=O)O
solubility (mole fraction)
Settings | 283.15 K | 288.15 K | 293.15 K | 298.15 K | 303.15 K | 308.15 K | 313.15 K | 318.15 K | 323.15 K
in 2-butanone | 0.00015 | 0.00017 | 0.0002 | 0.000237 | 0.000271 | 0.000301 | 0.000338 | 0.000373 | 0.00041
in acetonitrile | 3.44e-05 | 6.77e-05 | 0.000104 | 0.000138 | 0.000164 | 0.000192 | 0.000225 | 0.000254 | 0.000283
in ethanol | 0.000273 | 0.000304 | 0.000337 | 0.000372 | 0.000408 | 0.000447 | 0.000494 | 0.000522 | 0.000584
in ethyl acetate | 2.94e-05 | 5.21e-05 | 0.000138 | 0.000218 | 0.000293 | 0.000362 | 0.000452 | 0.00054 | 0.000653
in isobutanol | 5.11e-05 | 0.000112 | 0.000163 | 0.000254 | 0.000348 | 0.000442 | 0.000556 | 0.000662 | 0.000798
in methanol | 9.5e-05 | 0.000101 | 0.000114 | 0.000134 | 0.000164 | 0.000205 | 0.00025 | 0.000286 | 0.000347
in n-butanol | 0.000184 | 0.00023 | 0.000291 | 0.00035 | 0.0004 | 0.000458 | 0.000522 | 0.000574 | 0.000635
in n-hexane | 0.000129 | 0.000196 | 0.000263 | 0.000346 | 0.000425 | 0.000494 | 0.000554 | 0.000621 | 0.000681
in n-pentanol | 8.57e-05 | 0.000109 | 0.000137 | 0.000163 | 0.000245 | 0.000335 | 0.000448 | 0.000556 | 0.000654
in n-propanol | 8.13e-05 | 0.000115 | 0.000156 | 0.000189 | 0.000227 | 0.000266 | 0.000321 | 0.000375 | 0.000434
in sec-butanol | 5.51e-05 | 0.000106 | 0.00017 | 0.000231 | 0.000281 | 0.000353 | 0.00042 | 0.000501 | 0.000593
in water | 0.00356 | 0.00409 | 0.00471 | 0.00533 | 0.00595 | 0.00682 | 0.00811 | 0.0097 | 0.0121
